From patent publication US8993001B2, “Methods and compositions for treating feline hyperthyroidism” (Hill's Pet Nutrition, Inc., priority 2006, dated 2015)

Columns and labels:
[1] = test system: cats diagnosed with hyperthyroidism; experiment: Serum total T4 in hyperthyroid cats, six-week study (Example 1); format: in vivo, cat
Experimental: (§1) A group of five cats diagnosed with hyperthyroidism was fed food B for six weeks. Another five cats diagnosed with hyperthyroidism were given 2.5 mg methimazole orally once a day for six weeks while they were fed food B. Eight cats diagnosed with hyperthyroidism were given 2.5 mg methimazole orally once a day for six weeks while they were fed a commercially available cat food. The thyroid hormone profiles and serum chemistries of all cats were measured at zero, two, four, and six weeks.

[2] = Serum creatinine in hyperthyroid cats, six-week study (Example 1); format: in vivo, cat
Experimental: as §1, with “Food B1 and food B2 were mixed in a 1:1 ratio, thus resulting in food B. A group” for “A group”

[3] = cats diagnosed with hyperthyroidism, six weeks, methimazole 2.5 mg orally once a day where given

Cn1cc[nH]c1=S [Methimazole, methimazole]
total T4 concentration relative to the normal total T4 concentration range ([1]; after six weeks): did not reach the normal total T4 concentration range | Change in Serum Total T4 Levels [1, 3]: -20.3 nmol/L | serum creatinine concentration relative to the normal creatinine concentration range ([2]; after six weeks, normal range 0.8-1.8 mg/dL): a bit higher than the 0.8-1.8 mg/dL normal creatinine concentration range | Change in Serum Creatinine Levels [2, 3]: +0.46 mg/dL
